We go through one compound from US10702506B2, “Small molecule inhibitors of pendrin ion exchange and pharmaceutical compositions” (THE REGENTS OF THE UNIVERSITY OF CALIFORNIA, priority 2016, dated 2020).

The target in this test is T1, ENaC (Homo sapiens, UniProt P37088+P51168+P51170).
T1 construct: endogenous in cells; host or cells: IL-13-treated primary human bronchial epithelial (HBE) cell cultures
T1 sequence (P37088 1-669): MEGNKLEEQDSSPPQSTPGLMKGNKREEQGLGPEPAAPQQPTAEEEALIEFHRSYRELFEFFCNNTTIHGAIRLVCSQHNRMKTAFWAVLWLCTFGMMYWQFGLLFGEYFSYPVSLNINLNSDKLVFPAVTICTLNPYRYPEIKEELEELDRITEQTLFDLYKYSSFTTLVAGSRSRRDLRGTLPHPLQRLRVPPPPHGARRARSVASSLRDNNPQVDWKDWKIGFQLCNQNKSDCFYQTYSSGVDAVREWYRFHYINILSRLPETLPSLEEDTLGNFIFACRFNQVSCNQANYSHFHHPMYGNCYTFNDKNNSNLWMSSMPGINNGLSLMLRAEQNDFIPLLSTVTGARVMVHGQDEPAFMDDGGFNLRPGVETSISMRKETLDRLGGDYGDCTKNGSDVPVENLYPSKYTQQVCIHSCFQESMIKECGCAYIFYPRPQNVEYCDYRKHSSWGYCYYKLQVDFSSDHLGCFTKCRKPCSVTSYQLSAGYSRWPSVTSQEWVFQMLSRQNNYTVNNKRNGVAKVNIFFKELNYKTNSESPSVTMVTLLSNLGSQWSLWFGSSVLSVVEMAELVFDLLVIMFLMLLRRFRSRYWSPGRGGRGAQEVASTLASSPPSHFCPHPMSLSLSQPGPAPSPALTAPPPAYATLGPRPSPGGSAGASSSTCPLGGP
T1 sequence (P51168 1-640): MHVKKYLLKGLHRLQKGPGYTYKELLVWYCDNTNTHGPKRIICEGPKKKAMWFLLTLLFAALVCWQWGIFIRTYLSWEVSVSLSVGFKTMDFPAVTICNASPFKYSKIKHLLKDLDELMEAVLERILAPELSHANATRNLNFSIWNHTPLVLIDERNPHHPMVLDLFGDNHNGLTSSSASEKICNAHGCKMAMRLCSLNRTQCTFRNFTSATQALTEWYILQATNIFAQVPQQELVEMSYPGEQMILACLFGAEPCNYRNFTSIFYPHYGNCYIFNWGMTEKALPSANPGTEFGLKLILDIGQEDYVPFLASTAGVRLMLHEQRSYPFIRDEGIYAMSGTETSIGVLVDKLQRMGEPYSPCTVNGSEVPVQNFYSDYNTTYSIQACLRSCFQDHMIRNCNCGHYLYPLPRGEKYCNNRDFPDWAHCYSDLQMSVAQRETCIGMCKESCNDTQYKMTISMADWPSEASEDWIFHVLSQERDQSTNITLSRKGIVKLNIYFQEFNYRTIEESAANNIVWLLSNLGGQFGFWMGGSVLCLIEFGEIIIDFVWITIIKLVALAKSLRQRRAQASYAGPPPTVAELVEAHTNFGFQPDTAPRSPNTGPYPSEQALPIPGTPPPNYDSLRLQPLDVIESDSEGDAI
T1 sequence (P51170 1-649): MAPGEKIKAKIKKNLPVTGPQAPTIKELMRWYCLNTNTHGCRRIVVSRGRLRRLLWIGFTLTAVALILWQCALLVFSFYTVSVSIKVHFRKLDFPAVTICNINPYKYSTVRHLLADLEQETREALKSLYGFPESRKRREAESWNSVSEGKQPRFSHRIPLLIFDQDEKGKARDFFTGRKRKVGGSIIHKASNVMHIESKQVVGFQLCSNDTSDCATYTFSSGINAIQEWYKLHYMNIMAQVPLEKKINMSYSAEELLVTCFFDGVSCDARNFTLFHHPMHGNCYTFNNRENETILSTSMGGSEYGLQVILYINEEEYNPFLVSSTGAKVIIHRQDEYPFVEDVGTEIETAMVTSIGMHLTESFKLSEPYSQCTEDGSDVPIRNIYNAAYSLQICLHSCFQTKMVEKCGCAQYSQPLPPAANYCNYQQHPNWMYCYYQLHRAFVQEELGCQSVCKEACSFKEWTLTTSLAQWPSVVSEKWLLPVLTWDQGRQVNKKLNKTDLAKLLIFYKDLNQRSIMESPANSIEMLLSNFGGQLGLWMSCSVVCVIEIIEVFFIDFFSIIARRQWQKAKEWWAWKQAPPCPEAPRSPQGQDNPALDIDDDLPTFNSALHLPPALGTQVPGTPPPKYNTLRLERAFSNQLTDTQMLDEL
Description: Short-circuit current (Isc) analysis in IL-13-treated HBE cells, amiloride response. The class given is cell-based. The conditions noted are these: 25 μM, 30 min pre-treatment. Here is the method:
Further experiments were done with PDSinh-A01 because of its greater inhibition potency for Cl^−/HCO3^− exchange than PDSinh-C01. To investigate PDSinh-A01 specificity, the major ion transport pathways in HBE cells were studied by short-circuit current (Isc) analysis. Cells were treated with IL-13 to increase Ca^2+-activated Cl^− conductance (CaCC) activity. For Isc measurements, cells were sequentially treated with amiloride to inhibit the epithelial sodium channel (ENaC), forskolin to activate the cystic fibrosis transmembrane conductance regulator (CFTR), CFTRinh-172 to inhibit CFTR, and ATP to activate CaCC. In the absence of PDSinh-A01, ion channel modulators produced the anticipated changes in Isc (FIG. 4A).
IL-13-treated HBE cells were cultured on Snapwell clear permeable supports (12 mm diameter, 0.4 μm polyester membrane, Costar, Corning, Corning, N.Y.). Short-circuit current was measured using symmetrical HCO3^−-buffered solutions (in mM: 120 NaCl, 5 KCl, 1 MgCl2, 1 CaCl2, 5 Hepes, 25 NaHCO3; pH 7.4) as described, with ion transport modulators added to both apical and basolateral bathing solutions. Cells were equilibrated with 95% O2/5% CO2 and maintained at 37° C. during data acquisition. Statistical analysis was by Student's t-test.

With `Cn1nc(COc2cccc(F)c2)c2c1CCN(C(=O)Nc1ccc(Cl)cc1)C2` [PDSinh-A01], the “effect on ENaC activity (Isc response)” value is “did not affect the activity”.
